Entries after “also recorded” stand apart in the source; their conditions may differ.
Columns and labels:
[1] = tested on: Ehrlich Ascites Carcinoma (EAC); assay: Anti tumor activity on Ehrlich Ascites Carcinoma (EAC) bearing mice; format: in vivo; conditions: for % Tumor growth inhibition / Ascitic fluid volume (ml) Mean ± SE / Tumor cells in ascitic fluid (×10^7) Mean ± SE: day 12; for mortality of test animals: EAC bearing mice
Text: (§1) Non-inbred swiss albino mice from an in-house colony were used in the present study. The breeding and experimental animals were housed in standard size polycarbonate cages providing internationally recommended space for each animal. Animals were fed balanced mice feed supplied by MIs Ashirwad Industries, Chandigarh (India) and autoclaved water was available ad libitum. Animals were cared as per the guide for the care and use of laboratory animals (1996), ILAR, Washington D.C. They were housed in controlled conditions of temperature (23±2° C.), humidity (50-60%) and 12:12 hrs of light: dark cycle. The study and the number of animals used were approved by the institutional animal ethics committee, IIIM, Jammu, India. The study was conducted as per the protocols of National Cancer Institute (NCl), USA (Geran et al., 1972).
Ehrlich Ascites Carcinoma (EAC) was propagated by transplanting 1×10^7 cells from an animal bearing 8-10 days old Ehrlich Ascites Carcinoma, into the peritoneal cavity of non-inbreed swiss mice. For testing, mice of the same sex weighing 20 ±3 g bearing ascites tumor were selected. 1×10^7 cells obtained from an animal bearing 8-10 days old ascites tumor were injected into peritoneal cavity of all animals used for testing (0 Day). On next day animals were randomized and divided into test groups (7 animals in each test group) and one tumor control group (10 animals). Test groups were treated with different doses of Parthenin (10 mg/kg, 25 mg/kg and 50 mg/kg) and its derivative Compound-17 (10 mg/kg, 25 mg/kg and 50 mg/kg, 100 mg/kg and 200 mg/kg) suspension in 1% gum acacia in their respective group intraperitonealy for nine consecutive days. Another test group was administered 5 FU @ 20 mg/kg i.p and served as positive control. The tumor control group was similarly administered normal saline (0.2 ml i.p). The percent tumor growth inhibition were measured on day 12 with respect to volume of ascitic fluid and the number of tumor cells in the ascitic fluid of peritoneal cavity (Geran et al., 1972; Singh et al., 2007).
The percent tumor growth inhibition was calculated as follow. % growth inhibition=100×(Average no. of cells in control group−Average no. of cells in test group)/Average no. of cells in control group Results: […]

[2] = tested on: Ehrlich Ascites Tumor (EAT); assay: Anti tumor activity on solid Ehrlich Ascites Tumor (EAT) bearing mice; format: in vivo; conditions: for % Tumor growth inhibition / Tumor Weight (mg) Mean ± SE: day 13; for mortality of test animals: EAT bearing mice
Text: as §1
Parthenin and its derivative Compound-17 were evaluated against solid Ehrlich Ascites Tumor (EAT) models at different doses. A standard procedure for experiment was as followed:
Animals of the same sex weighing 20±3 g were injected 1×10^7 cells collected from the peritoneal cavity of non-inbred swiss mice, bearing 8-10 days old tumor cells, into the right thigh, intramuscularly (on Day 1). On next day animals were randomized and divided into test groups (7 animals in each test group) and one tumor control group (10 animals). Test groups were treated with different doses of Parthenin (10 mg/kg, 25 mg/kg and 50 mg/kg) and its derivative Compound-17 (10 mg/kg, 25 mg/kg and 50 mg/kg, 100 mg/kg and 200 mg/kg) suspension in 1% gum acacia in, their respective group intraperitonealy for nine consecutive days. Another test group was administered 5-FU @ 22 mg/kg i.p and served as positive control. The tumor contra group was similarly administered normal saline (0.2 ml i.p). The percent tumor growth-inhibition was measured on day 13 with respect to their tumor weight (Geran et al., 1972): Shortest and longest diameters of the tumor mass were measured with the help of vernier caliper and tumor weight (mg) was calculated by using following formula Tumor weight (mg)=Length (mm)×(Width (mm)^2/2 The average tumor weight for each group was calculated and the percent tumor growth inhibition in treated groups was calculated as follows: % Tumor Growth Inhibition=100×(Average tumor weight of control group−Average tumor weight of test group)/Average tumor weight of control group Anti Tumor Activity of Parthenin and its Derivative Compound-17 on Ehrlich Ascites Carcinoma (EAC)

PC-3 = assay: In vitro cytotoxicity screening (sulphodamine B dye), PC-3; format: cell-based; conditions: Homo sapiens; PC-3 prostate cancer cell line
Procedure: (§2) Cells at sub confluent stage were harvested from the flask by treatment with trypsin (0.5% in PBS containing 0.02% EDTA) for determination of cytotoxicity. […] The cell suspensions of required cell density were prepared in complete growth medium with gentamycin (50 μg/ml) for determination of cytotoxicity. The cells (100 μl/well) were inoculated in 96 well tissue culture plates. The cells were allowed to grow for 24 hrs temperature of 37° C. and in a humidified atmosphere of 5% CO2 in air. Stock solution of (20 mM) of test material was prepared in DMSO. The stock solution was serially diluted with complete growth medium containing 50 μg/ml of gentamycin to obtain […] working test solutions of 1., 2, 5, 10, 50 and 100 μM.
(§3) The media were supplemented with FCS (10%), penicillin (100 Units/ml), streptomycin (100 μg/ml) and glutamine (2 mM) and cells were grown in CO2 incubator (Hera cell, Heraeus, USA) at 37° C. with 90% humidity and 5% CO2.

DU-145 = assay: In vitro cytotoxicity screening (sulphodamine B dye), DU-145; format: cell-based; conditions: Homo sapiens; DU-145 prostate cancer cell line
Procedure: as §2, §3

SW-620 = assay: In vitro cytotoxicity screening (sulphodamine B dye), SW-620; format: cell-based; conditions: Homo sapiens; SW-620 colon cancer cell line
Procedure: as §2, §3

O=c1[nH]cc(F)c(=O)[nH]1 [Compound 5-FU, 5-Fluorouracil, reference compound]
% Tumor growth inhibition ([1]; 20 mg/kg i.p.): 100%
Ascitic fluid volume (ml) Mean ± SE ([1]; 20 mg/kg i.p.): 0 mL
Tumor cells in ascitic fluid (×10^7) Mean ± SE ([1]; 20 mg/kg i.p.): 0 ×10^7
% Tumor growth inhibition ([2]; 22 mg/kg i.p.): 51.28%
Tumor Weight (mg) Mean ± SE ([2]; 22 mg/kg i.p.): 832.28 ± 35.21 mg

C=C1C(=O)O[C@@H]2[C@H]1CC[C@H](C)[C@]1(O)C=CC(=O)[C@@]21C [Parthenin]
IC50 (PC-3): 40.3 µM
% Tumor growth inhibition ([1]; 10 mg/kg i.p., nine days): 12.01%
Ascitic fluid volume (ml) Mean ± SE ([1]; 10 mg/kg i.p., nine days): 3.92 ± 0.38 mL
Tumor cells in ascitic fluid (×10^7) Mean ± SE ([1]; 10 mg/kg i.p., nine days): 74.71 ± 2.77 ×10^7
mortality of test animals ([1]; 25 mg/kg i.p.): mortality of all the test animals; also recorded: All animals died by 4th day
mortality of test animals ([1]; 50 mg/kg i.p.): mortality of all the test animals; also recorded: All animals died by 2nd day
IC50 (DU-145): 31.1 µM
% Tumor growth inhibition ([2]; 10 mg/kg i.p., nine days): 9.69%
Tumor Weight (mg) Mean ± SE ([2]; 10 mg/kg i.p., nine days): 1542.86 ± 35.24 mg
mortality of test animals ([2]; 25 mg/kg i.p.): mortality of all the animals; also recorded: All animals died by 4th day
mortality of test animals ([2]; 50 mg/kg i.p.): mortality of all the animals; also recorded: All animals died by 2nd day
IC50 (SW-620): 38.7 µM
